Reference: patent US20110230472A1, “RING-FUSED AZOLE DERIVATIVE HAVING PI3K-INHIBITING ACTIVITY” (Shionogi & Co., Ltd., priority 2008, published 2011)

molecular target: PI-3 kinase γ (Homo sapiens, UniProt P48736); test: PI3Kγ inhibitory activity, PI3-kinase HTRF assay (inhibition ratio); type: biochemical; details: 0.5 h; PI3Kγ, compound at 10 μM
Summary of the method: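 PI3Kγ preincubated 10 min with compound and PIP2 substrate (MgCl2, DTT), then ATP added for 30 min at room temperature. PIP3 detected by HTRF (665/620 nm ratio) after 18 h. Inhibition ratio at 50 or 10 μmol/L, normalised to no-compound and no-enzyme controls.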

PI-3 kinase γ, sequence (P48736 whole entry): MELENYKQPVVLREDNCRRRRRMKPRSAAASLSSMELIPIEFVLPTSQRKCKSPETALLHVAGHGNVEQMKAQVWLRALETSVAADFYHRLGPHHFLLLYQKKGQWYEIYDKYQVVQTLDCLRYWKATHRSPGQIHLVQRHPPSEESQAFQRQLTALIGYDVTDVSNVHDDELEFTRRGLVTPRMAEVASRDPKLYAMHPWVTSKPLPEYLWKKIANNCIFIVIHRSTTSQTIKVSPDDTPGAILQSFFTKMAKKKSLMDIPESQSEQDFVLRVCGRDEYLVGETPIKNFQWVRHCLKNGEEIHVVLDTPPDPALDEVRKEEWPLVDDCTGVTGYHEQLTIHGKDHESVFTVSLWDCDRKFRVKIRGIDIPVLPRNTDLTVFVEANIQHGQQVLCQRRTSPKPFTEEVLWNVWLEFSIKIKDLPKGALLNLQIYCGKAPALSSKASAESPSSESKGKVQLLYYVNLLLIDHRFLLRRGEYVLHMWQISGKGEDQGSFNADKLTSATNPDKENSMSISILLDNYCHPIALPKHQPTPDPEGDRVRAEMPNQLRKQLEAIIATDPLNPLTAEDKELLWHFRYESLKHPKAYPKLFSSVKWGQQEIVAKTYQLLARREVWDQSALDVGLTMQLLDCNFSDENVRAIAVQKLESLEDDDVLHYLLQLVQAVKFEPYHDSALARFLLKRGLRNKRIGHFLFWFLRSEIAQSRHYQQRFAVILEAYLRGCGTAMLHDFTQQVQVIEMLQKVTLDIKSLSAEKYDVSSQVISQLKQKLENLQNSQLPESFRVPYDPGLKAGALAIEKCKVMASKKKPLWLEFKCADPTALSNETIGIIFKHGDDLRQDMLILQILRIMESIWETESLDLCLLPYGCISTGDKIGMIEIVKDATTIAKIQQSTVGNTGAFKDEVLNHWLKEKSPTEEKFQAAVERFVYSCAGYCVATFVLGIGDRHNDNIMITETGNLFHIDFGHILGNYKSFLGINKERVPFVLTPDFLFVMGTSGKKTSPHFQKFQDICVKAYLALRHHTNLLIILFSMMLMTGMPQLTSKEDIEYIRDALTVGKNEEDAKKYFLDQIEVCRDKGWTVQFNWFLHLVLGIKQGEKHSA

inhibition at 10 µM	Structure (SMILES)
≥ 95%	COc1cc(N2CCc3nc(NC(=O)NCCC(=O)Nc4ccccc4)sc3C2)nc(OC)n1 [Compound I-273]
≥ 95%	COc1cc(N2CCc3nc(NC(=O)NCCC(=O)N(C(C)C)C(C)C)sc3C2)nc(OC)n1 [Compound I-272]

same assay, conditions: 0.5 h; PI3Kγ, compound at 50 μM

inhibition at 50 µM	Structure (SMILES)
≥ 95%	CNC(=O)Nc1cc2n(n1)CCN2c1cccc(OC)c1 [Compound I-61]
79%	CNC(=O)Nc1cc2n(n1)CCN2c1cc(Br)cc(C(=O)N2CCN(C(=O)OC(C)(C)C)CC2)c1 [Compound I-182]
≥ 95%	CNC(=O)Nc1cc2n(n1)CCN2c1cc(Br)cc(C(=O)NC(C)(C)C)c1 [Compound I-180]
≥ 95%	CNC(=O)Nc1cc2n(n1)CCN2c1ccncc1 [Compound I-141]
≥ 95%	COC(=O)c1cc(N2CCc3nc(NC(C)=O)sc3C2)nc(Cl)n1 [Compound I-116]
≥ 95%	CNC(=O)Nc1cc2n(n1)CCN2c1nc2ccccc2s1 [Compound I-115]
92%	CNC(=O)Nc1nc2c(s1)CN(c1nccc(OC)n1)CC2 [Compound I-93]
≥ 95%	CNC(=O)Nc1cc2n(n1)CCN2c1cncc(OC)c1 [Compound I-79]
≥ 95%	CNC(=O)Nc1cc2n(n1)CCN2c1ccc(F)c(C(=O)O)c1 [Compound I-189]
93%	CNC(=O)Nc1cc2n(n1)CCN2c1cc(CCc2ccccc2)cc(C(=O)N2CCOCC2)c1 [Compound I-260]
≥ 95%	CNC(=O)Nc1nc2c(s1)CN(c1cc(OC)nc(OC)n1)CC2 [Compound I-107]
≥ 95%	NC(=O)CCC(=O)Nc1cc2n(n1)CCN2c1cccc(Cl)c1 [Compound I-249]
≥ 95%	CNC(=O)Nc1cc2n(n1)CCN2c1cc(Br)cc(C(=O)OC)c1 [Compound I-146]
≥ 95%	CNC(=O)Nc1nc2c(s1)CN(c1cc(Oc3ccccc3)nc(OC)n1)CC2 [Compound I-138]

same assay, conditions: 0.5 h; compound at 10 μmol/L

inhibition at 10 µM	Structure (SMILES)
≥ 95%	CC(=O)Nc1cc2n(n1)CCN2c1ccc2c(c1)CCCN2.Cl.Cl [Compound I-319]
80%	CN1CCc2cc(N3CCn4nc(NC(=O)c5cc6ccccc6[nH]5)cc43)ccc2C1=O [Compound I-345]
≥ 95%	CNC(=O)c1ccc(C(=O)Nc2cc3n(n2)CCN3c2ccc3c(c2)CCN(C)C3=O)s1 [Compound I-406]
≥ 95%	CN1CCc2cc(N3CCn4nc(NC(=O)c5cccc(N)c5)cc43)ccc2C1=O [Compound I-473]
76%	CN1CCc2cc(N3CCn4nc(NC(=O)c5csc(Br)c5)cc43)ccc2C1=O [Compound I-396]
88%	CC(C)NC(=O)c1ccccc1NC(=O)Nc1nc2c(s1)CN(C(=O)OCc1ccccc1)CC2 [Compound I-441]
82%	CCCCOc1ccc(C(=O)Nc2cc3n(n2)CCN3c2ccc3c(c2)CCN(C)C3=O)cc1 [Compound I-477]
≥ 95%	CC(=O)Nc1cc2n(n1)CCN2c1ccc2c(c1)CCCN2C(=O)OC(C)(C)C [Compound I-306]
79%	CC(C)NS(=O)(=O)c1ccc(C(=O)Nc2cc3n(n2)CCN3c2ccc3c(c2)CCN(C)C3=O)cc1 [Compound I-527]
93%	CN1CCc2cc(N3CCn4nc(NC(=O)c5cc(C(=O)O)cs5)cc43)ccc2C1=O [Compound I-401]
75%	CC(=O)Nc1ncc(C(=O)Nc2cc3n(n2)CCN3c2ccc3c(c2)CCN(C)C3=O)s1 [Compound I-531]
≥ 95%	CN1CCc2cc(N3CCn4nc(NC(=O)c5cnc(N)o5)cc43)ccc2C1=O [Compound I-381]
94%	CN1CCc2cc(N3CCn4nc(NC(=O)NCC(=O)O)cc43)ccc2C1=O [Compound I-522]
≥ 95%	CC(C)NC(=O)Cc1cc(C(=O)Nc2cc3n(n2)CCN3c2ccc3c(c2)CCN(C)C3=O)cs1 [Compound I-495]
≥ 95%	CN1CCc2cc(N3CCn4nc(NC(=O)c5ccc(C(=O)O)s5)cc43)ccc2C1=O [Compound I-391]
75%	CC(C)NC(=O)c1ccccc1NC(=O)Nc1nc2c(s1)CN(C(=O)c1cccc(Cl)c1)CC2 [Compound I-511]
79%	COc1ccccc1C(=O)N1CCc2nc(NC(=O)Nc3ccccc3C(=O)NC(C)C)sc2C1 [Compound I-485]
88%	COc1nc(Cl)cc(N2CCc3nc(NC(=O)NCCC(=O)NC(C)C)sc3C2)n1 [Compound I-554]
92%	CN1CCc2cc(N3CCn4nc(NC(=O)c5ccc(S(C)(=O)=O)cc5)cc43)ccc2C1=O [Compound I-481]
≥ 95%	CN1CCc2cc(N3CCn4nc(NC(=O)c5ccc(N)cc5)cc43)ccc2C1=O [Compound I-489]

tested on: not listed separately; test: Solubility test; type: physicochemical; details: kinetic from dmso stock; artificial intestinal juice pH 6.8, 1% DMSO, 25° C. for 16 hours
Description: The solubility of a compound was determined under a condition in which 1% DMSO was added. 10 mmol/L compound solution was prepared using DMSO, and then 6 μL of the compound solution was added to 594 μL of artificial intestinal juice in pH 6.8 (to 250 mL of 0.2 mol/L potassium dihydrogen phosphate reagent solution was added 118 mL of 0.2 mol/L NaOH reagent solution and water to provide a final volume of 1000 mL). After standing at 25° C. for 16 hours, the mixed solution was filtered with suction. The filtrate was diluted twice with methanol/water (1/1), and then a concentration in the filtration was measured with HPLC or LC/MS/MS by the absolute calibration method.

solubility at 16 h	Structure (SMILES)
> 50 µM	CC(=O)Nc1cc2n(n1)CCN2c1ccc2c(c1)CCCN2.Cl.Cl [Compound I-319]
> 50 µM	CNC(=O)Nc1cc2n(n1)CCN2c1cccc(OC)c1 [Compound I-61]
